ChEMBL document CHEMBL4818994, “Uncompetitive nanomolar dimeric indenoindole inhibitors of the human breast cancer resistance pump ABCG2” (Eur J Med Chem, 2021)

target: T1, Broad substrate specificity ATP-binding cassette transporter ABCG2 (Homo sapiens, UniProt Q9UNQ0); assay: Mixed inhibition of human ABCG2 transfected in human HEK293 cells assessed as Ki2 for inhibition of mitoxantrone efflux measured after 30 mins by FACS Calibur cytometric analysis; assay type: cell-based
T1 sequence (Q9UNQ0 whole entry): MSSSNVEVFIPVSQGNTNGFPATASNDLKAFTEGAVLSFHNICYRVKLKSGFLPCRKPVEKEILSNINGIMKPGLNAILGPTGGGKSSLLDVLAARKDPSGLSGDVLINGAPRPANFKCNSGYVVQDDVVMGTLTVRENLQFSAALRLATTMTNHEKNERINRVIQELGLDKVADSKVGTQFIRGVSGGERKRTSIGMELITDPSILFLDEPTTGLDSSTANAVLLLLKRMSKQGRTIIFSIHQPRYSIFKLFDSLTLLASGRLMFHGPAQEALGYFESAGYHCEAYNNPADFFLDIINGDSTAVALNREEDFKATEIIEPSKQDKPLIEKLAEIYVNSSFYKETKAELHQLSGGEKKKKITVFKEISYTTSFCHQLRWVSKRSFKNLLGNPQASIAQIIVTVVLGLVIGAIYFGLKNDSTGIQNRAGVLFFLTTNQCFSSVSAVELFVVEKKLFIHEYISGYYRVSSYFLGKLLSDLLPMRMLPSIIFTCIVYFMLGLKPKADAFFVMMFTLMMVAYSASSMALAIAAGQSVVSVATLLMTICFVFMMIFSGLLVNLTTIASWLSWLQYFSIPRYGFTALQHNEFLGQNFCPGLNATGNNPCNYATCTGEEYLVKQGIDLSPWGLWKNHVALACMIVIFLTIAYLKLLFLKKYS

With `COc1cccc(CCn2c3c(c4c(O)cccc42)C(=O)c2ccccc2-3)c1` as the compound, how does the Ki read?
The Ki was 0.294 µM.

target: T1, Broad substrate specificity ATP-binding cassette transporter ABCG2; assay: Inhibition of human ABCG2 transfected in human HEK293 cells assessed as inhibition of mitoxantrone efflux measured after 30 mins by FACS Calibur cytometric analysis; assay type: cell-based

`CC1CC(=O)c2c3c(n(CCc4ccccc4)c2C1)-c1cc(OCCCCCCCCCCOc2ccc4c(c2)-c2c(c5c(n2CCc2ccccc2)CC(C)CC5=O)C4=O)ccc1C3=O` (stereo not drawn) was tested. Which IC50 did it give?
Its IC50 is greater than 10 µM.

For `COc1cccc(CCn2c3c(c4c(OCCCCCCCCCCCCOc5cccc6c5c5c(n6CCc6cccc(OC)c6)-c6ccccc6C5=O)cccc42)C(=O)c2ccccc2-3)c1`, which IC50 is on record?
Its IC50 is greater than 10 µM.

`COc1cccc(CCn2c3c(c4c(OCCCCCCCCCCCCOc5ccc6c(c5)-c5c(c7c(n5CCc5ccccc5)CC(C)CC7=O)C6=O)cccc42)C(=O)c2ccccc2-3)c1` (stereo not drawn) was tested. Which IC50 did it give?
Its IC50 is greater than 10 µM.

How did the IC50 turn out when `COc1cccc(CCn2c3c(c4c(OCCCCCCCCCCOc5ccc6c(c5)-c5c(c7c(n5CCc5ccccc5)CC(C)CC7=O)C6=O)cccc42)C(=O)c2ccccc2-3)c1` (stereo not drawn) was run?
Its IC50 is greater than 10 µM.

How did the IC50 turn out when `CC1CC(=O)c2c3c(n(CCc4ccccc4)c2C1)-c1cc(OCCCCCCCCCCCCOc2ccc4c(c2)-c2c(c5c(n2CCc2ccccc2)CC(C)CC5=O)C4=O)ccc1C3=O` (stereo not drawn) was run?
Its IC50 is greater than 10 µM.

With `CC1CC(=O)c2c3c(n(CCc4ccccc4)c2C1)-c1cc(OCCCCCCCCOc2ccc4c(c2)-c2c(c5c(n2CCc2ccccc2)CC(C)CC5=O)C4=O)ccc1C3=O` (stereo not drawn) as the compound, how does the IC50 read?
Its IC50 is greater than 10 µM.

How did the IC50 turn out when `COc1cccc(CCn2c3c(c4c(O)cccc42)C(=O)c2ccccc2-3)c1` was run?
The IC50 was 0.732 µM.

How did the IC50 turn out when `COc1cccc(CCn2c3c(c4c(OCCCCCCCCCCOc5cccc6c5c5c(n6CCc6cccc(OC)c6)-c6ccccc6C5=O)cccc42)C(=O)c2ccccc2-3)c1` was run?
The IC50 was greater than 10 µM.

With `CC1CC(=O)c2c3c(n(CCc4ccccc4)c2C1)-c1cc(OCCCCCCOc2ccc4c(c2)-c2c(c5c(n2CCc2ccccc2)CC(C)CC5=O)C4=O)ccc1C3=O` (stereo not drawn) as the compound, how does the IC50 read?
Its IC50 is greater than 10 µM.

`COc1cccc(CCn2c3c(c4c(OCCCCCCCCOc5cccc6c5c5c(n6CCc6cccc(OC)c6)-c6ccccc6C5=O)cccc42)C(=O)c2ccccc2-3)c1` was tested. Which IC50 did it give?
The IC50 was greater than 10 µM.

target: T1, Broad substrate specificity ATP-binding cassette transporter ABCG2; assay: Non-competitive inhibition of human ABCG2 transfected in human HEK293 cells assessed as Ki2 for inhibition of mitoxantrone efflux measured after 30 mins by FACS Calibur cytometric analysis; assay type: cell-based

How did the Ki turn out when `COc1cccc(CCn2c3c(c4c(O)cccc42)C(=O)c2ccccc2-3)c1` was run?
The Ki was 0.25 µM.

target: T1, Broad substrate specificity ATP-binding cassette transporter ABCG2; assay: Mixed inhibition of human ABCG2 transfected in human HEK293 cells assessed as Ki1 for inhibition of mitoxantrone efflux measured after 30 mins by FACS Calibur cytometric analysis; assay type: cell-based

How did the Ki turn out when `COc1cccc(CCn2c3c(c4c(O)cccc42)C(=O)c2ccccc2-3)c1` was run?
The Ki was 0.188 µM.
